Key:
Test in all cases: biochemical
[1] = biological target: T1, p70S6Kβ (Homo sapiens, UniProt Q9UBS0)
T1 construct: gene RPS6KB2
Procedure, shortened: (§1)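 Reactions at room temperature in HEPES buffer (20 mM, pH 7.5, 0.01% Triton X-100, 2 mM DTT) lasted 1 or 5 h depending on kinase, with substrate peptide and ATP-metal. Phosphorylation read by electrophoretic mobility shift or IMAP polarization; kinase activity computed as P/(P + S).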

[2] = biological target: T2, CGK2 (Homo sapiens, UniProt Q13237)
T2 construct: gene PRKG2
Procedure, shortened: as §1

[3] = biological target: Haspin (Homo sapiens, UniProt Q8TF76)
Procedure, shortened: as §1

[4] = biological target: T3, MST1 (Homo sapiens, UniProt Q13043)
T3 construct: gene STK4
Procedure, shortened: as §1

[5] = biological target: FGFR4(V550L) (Homo sapiens, UniProt P22455, V550L)
Procedure, shortened: as §1

[6] = biological target: HIPK4 (Homo sapiens, UniProt Q8NE63)
Procedure, shortened: as §1

[7] = biological target: T4, GSK3α (Homo sapiens, UniProt P49840)
T4 construct: gene GSK3A
Procedure, shortened: as §1

[8] = biological target: T5, skMLCK (Homo sapiens, UniProt Q9H1R3)
T5 construct: gene MYLK2
Procedure, shortened: as §1

[9] = biological target: FRK (Homo sapiens, UniProt P42685)
Procedure, shortened: as §1

[10] = biological target: T6, RSK1 (Homo sapiens, UniProt Q15418)
T6 construct: gene RPS6KA1
Procedure, shortened: as §1

[11] = biological target: T7, p38α (Homo sapiens, UniProt Q16539)
T7 construct: gene MAPK14
Procedure, shortened: as §1

[12] = biological target: SPHK2 (Homo sapiens, UniProt Q9NRA0)
Procedure, shortened: as §1

[13] = biological target: T8, IKKβ (Homo sapiens, UniProt O14920)
T8 construct: gene IKBKB
Procedure, shortened: as §1

[14] = biological target: FGFR3(K650E) (Homo sapiens, UniProt P22607, K650E)
Procedure, shortened: as §1

[15] = biological target: MET (Homo sapiens, UniProt P08581)
Procedure, shortened: as §1

[16] = biological target: T9, CaMK1α (Homo sapiens, UniProt Q14012)
T9 construct: gene CAMK1
Procedure, shortened: as §1

[17] = biological target: RET(M918T) (Homo sapiens, UniProt P07949, M918T)
Procedure, shortened: as §1

[18] = biological target: CDK2/CycA2 (Homo sapiens, UniProt P24941)
Procedure, shortened: as §1

[19] = biological target: T10, AurB (Homo sapiens, UniProt Q96GD4)
T10 construct: gene AURKB
Procedure, shortened: as §1

[20] = biological target: T11, p70S6K (Homo sapiens, UniProt P23443)
T11 construct: gene RPS6KB1
Procedure, shortened: as §1

[21] = biological target: TSSK3 (Homo sapiens, UniProt Q96PN8)
Procedure, shortened: as §1

[22] = biological target: DYRK1B (Homo sapiens, UniProt Q9Y463)
Procedure, shortened: as §1

[23] = biological target: FER (Homo sapiens, UniProt P16591)
Procedure, shortened: as §1

[24] = biological target: T12, IRR (Homo sapiens, UniProt P14616)
T12 construct: gene INSRR
Procedure, shortened: as §1

[25] = biological target: T13, LYNb (Homo sapiens, UniProt P07948)
T13 construct: gene LYN; isoform b
Procedure, shortened: as §1

[26] = biological target: SPHK1 (Homo sapiens, UniProt Q9NYA1)
Procedure, shortened: as §1

[27] = biological target: FGFR4(V550E) (Homo sapiens, UniProt P22455, V550E)
Procedure, shortened: as §1

[28] = biological target: EPHB2 (Homo sapiens, UniProt P29323)
Procedure, shortened: as §1

[29] = biological target: T14, JNK2 (Homo sapiens, UniProt P45984)
T14 construct: gene MAPK9
Procedure, shortened: as §1

[30] = biological target: T15, PKCι (Homo sapiens, UniProt P41743)
T15 construct: gene PRKCI
Procedure, shortened: as §1

[31] = biological target: T16, CK1γ2 (Homo sapiens, UniProt P78368)
T16 construct: gene CSNK1G2
Procedure, shortened: as §1

Chain of FRK (P42685 whole entry): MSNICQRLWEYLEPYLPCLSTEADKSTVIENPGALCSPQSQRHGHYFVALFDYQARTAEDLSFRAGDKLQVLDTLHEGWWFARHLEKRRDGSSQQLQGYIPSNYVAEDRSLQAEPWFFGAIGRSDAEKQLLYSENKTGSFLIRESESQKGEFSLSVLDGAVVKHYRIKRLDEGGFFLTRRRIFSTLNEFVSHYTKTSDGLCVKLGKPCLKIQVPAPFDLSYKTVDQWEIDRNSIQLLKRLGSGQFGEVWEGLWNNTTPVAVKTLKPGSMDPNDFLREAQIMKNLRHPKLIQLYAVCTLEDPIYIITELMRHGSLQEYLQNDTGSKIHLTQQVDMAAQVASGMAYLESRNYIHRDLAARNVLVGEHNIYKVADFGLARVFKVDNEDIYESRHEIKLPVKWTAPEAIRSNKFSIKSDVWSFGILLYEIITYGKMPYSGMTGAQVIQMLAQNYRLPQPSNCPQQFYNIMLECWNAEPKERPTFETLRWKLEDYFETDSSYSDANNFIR
Chain of FGFR4(V550L) (P22455 whole entry V550L): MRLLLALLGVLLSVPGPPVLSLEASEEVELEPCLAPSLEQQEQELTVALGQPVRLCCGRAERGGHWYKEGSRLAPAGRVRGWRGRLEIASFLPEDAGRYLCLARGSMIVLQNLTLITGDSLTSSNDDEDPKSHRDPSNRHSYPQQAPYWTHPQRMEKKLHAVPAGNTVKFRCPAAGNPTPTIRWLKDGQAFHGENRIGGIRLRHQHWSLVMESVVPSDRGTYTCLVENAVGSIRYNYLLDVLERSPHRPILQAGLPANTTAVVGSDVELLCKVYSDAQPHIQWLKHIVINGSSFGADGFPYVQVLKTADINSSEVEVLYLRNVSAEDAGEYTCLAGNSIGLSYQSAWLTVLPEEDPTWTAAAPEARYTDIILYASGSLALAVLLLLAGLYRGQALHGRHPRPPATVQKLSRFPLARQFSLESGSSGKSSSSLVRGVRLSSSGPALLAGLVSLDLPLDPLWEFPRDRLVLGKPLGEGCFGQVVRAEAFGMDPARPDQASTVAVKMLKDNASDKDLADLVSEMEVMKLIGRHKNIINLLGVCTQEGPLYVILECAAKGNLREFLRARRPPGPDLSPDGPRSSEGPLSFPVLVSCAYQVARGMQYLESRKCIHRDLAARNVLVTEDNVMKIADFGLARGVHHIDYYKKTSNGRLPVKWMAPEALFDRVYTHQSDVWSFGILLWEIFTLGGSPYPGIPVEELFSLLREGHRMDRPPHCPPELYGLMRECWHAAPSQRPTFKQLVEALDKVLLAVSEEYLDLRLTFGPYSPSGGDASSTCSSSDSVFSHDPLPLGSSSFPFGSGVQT
T12 sequence (P14616 whole entry): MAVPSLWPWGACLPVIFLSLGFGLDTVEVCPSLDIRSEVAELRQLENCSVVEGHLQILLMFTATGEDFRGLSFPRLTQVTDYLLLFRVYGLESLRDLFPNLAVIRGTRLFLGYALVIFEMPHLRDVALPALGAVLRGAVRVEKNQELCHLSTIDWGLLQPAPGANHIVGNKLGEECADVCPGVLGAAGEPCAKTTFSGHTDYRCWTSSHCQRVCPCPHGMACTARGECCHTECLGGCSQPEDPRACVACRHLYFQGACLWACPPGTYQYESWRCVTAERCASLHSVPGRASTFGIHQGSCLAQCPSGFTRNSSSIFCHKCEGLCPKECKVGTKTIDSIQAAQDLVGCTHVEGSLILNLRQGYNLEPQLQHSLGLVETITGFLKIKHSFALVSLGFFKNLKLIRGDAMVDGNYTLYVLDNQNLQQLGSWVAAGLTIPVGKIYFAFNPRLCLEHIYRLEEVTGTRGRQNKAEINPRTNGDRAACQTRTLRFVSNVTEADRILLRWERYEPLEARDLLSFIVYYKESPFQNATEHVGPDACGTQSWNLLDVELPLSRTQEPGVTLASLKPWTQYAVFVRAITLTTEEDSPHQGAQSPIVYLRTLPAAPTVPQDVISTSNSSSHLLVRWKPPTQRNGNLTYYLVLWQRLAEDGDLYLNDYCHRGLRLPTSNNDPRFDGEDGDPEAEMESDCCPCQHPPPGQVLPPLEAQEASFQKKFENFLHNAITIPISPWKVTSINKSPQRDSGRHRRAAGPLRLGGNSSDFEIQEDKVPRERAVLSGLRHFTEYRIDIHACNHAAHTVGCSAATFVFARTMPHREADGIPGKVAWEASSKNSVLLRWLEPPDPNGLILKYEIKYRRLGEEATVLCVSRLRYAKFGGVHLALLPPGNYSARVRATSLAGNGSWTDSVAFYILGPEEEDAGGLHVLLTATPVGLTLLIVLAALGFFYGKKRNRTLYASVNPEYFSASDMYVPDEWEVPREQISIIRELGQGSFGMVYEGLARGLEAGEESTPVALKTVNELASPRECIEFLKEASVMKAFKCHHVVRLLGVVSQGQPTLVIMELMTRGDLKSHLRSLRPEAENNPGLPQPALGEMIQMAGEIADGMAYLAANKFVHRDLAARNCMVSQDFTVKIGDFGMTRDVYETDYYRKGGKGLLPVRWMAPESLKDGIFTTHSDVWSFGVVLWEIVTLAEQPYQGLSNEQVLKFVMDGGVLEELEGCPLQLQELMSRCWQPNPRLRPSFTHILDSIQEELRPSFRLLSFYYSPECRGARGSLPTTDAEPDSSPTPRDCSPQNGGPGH
T16 sequence (P78368 whole entry): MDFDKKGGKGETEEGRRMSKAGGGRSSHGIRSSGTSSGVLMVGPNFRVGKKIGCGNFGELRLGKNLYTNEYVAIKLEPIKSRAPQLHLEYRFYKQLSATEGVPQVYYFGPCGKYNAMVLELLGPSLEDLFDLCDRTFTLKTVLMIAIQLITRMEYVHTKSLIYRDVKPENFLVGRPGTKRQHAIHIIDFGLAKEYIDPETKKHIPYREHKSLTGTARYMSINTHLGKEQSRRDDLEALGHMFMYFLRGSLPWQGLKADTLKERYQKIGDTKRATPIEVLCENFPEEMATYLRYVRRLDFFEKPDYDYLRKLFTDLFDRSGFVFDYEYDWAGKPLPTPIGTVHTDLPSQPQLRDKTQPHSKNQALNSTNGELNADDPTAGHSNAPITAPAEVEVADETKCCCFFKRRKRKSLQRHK
T13 sequence (P07948 whole entry, canonical isoform): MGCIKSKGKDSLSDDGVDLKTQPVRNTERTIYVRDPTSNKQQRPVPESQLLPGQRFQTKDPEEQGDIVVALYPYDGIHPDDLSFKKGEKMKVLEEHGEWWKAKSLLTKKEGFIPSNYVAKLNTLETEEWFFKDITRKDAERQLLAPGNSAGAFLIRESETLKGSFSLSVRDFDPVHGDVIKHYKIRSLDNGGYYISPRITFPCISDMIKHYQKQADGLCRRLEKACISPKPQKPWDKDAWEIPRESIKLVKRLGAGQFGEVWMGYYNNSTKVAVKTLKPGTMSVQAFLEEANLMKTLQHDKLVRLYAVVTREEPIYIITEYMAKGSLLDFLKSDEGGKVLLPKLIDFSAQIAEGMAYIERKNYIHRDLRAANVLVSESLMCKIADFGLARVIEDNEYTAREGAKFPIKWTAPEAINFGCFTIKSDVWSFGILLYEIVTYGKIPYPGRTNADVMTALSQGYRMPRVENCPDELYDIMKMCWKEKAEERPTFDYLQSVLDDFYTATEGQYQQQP
T14 sequence (P45984 whole entry): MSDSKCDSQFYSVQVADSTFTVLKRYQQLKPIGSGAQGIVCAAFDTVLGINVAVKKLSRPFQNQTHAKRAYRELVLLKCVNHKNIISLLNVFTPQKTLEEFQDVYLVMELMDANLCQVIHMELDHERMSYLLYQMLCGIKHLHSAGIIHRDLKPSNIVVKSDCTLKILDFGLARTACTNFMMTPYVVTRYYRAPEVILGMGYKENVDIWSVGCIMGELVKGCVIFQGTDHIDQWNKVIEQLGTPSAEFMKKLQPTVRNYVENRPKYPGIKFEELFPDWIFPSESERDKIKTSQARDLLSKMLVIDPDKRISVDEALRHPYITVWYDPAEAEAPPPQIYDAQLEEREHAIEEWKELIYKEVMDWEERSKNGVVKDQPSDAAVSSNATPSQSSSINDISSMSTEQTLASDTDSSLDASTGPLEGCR
T3 sequence (Q13043 whole entry): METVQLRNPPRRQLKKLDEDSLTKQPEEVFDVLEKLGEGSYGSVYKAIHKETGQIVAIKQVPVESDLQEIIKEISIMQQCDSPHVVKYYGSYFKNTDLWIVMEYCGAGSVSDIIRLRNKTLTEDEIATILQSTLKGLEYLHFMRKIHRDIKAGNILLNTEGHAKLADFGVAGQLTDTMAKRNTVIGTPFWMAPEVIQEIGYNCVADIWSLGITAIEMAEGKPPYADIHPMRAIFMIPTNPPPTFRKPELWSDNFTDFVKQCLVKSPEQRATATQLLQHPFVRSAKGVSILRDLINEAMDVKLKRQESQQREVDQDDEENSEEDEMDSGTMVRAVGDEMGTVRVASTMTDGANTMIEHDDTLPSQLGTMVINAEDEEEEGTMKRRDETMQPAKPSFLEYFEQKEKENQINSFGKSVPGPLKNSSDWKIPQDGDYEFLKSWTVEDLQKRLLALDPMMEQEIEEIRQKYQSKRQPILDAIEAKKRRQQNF
T7 sequence (Q16539 whole entry): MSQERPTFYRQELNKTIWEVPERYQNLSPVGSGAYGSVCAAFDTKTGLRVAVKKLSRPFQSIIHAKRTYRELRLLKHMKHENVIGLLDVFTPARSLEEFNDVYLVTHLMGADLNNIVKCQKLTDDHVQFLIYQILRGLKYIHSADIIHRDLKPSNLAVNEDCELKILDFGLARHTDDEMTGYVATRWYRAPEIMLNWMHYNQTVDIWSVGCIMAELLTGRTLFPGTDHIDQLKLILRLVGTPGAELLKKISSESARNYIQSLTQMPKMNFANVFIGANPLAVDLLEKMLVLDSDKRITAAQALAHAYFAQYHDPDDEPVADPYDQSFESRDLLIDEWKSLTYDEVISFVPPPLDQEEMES
Chain of FGFR4(V550E) (P22455 whole entry V550E): as the sequence (P22455 whole entry V550L) above, with L550E counted along it

c1cc(-c2ccc3[nH]ncc3c2)ccn1 [TG693, 5-(4-pyridinyl)-1H-indazole]
inhibition at 1 µM [1]: 18.7% | inhibition at 1 µM [2]: 38.5% | inhibition at 1 µM [3]: 92.8% | inhibition at 1 µM [4]: -1.9% | inhibition at 1 µM [5]: -36.6% | inhibition at 1 µM [6]: 7.6% | inhibition at 1 µM [7]: 12.6% | inhibition at 1 µM [8]: 0.9% | inhibition at 1 µM [9]: -2.3% | inhibition at 1 µM [10]: -4.7% | inhibition at 1 µM [11]: -0.1% | inhibition at 1 µM [12]: 4.1% | inhibition at 1 µM [13]: 14.6% | inhibition at 1 µM [14]: 5.2% | inhibition at 1 µM [15]: 13.2% | inhibition at 1 µM [16]: 1.5% | inhibition at 1 µM [17]: -2.6% | inhibition at 1 µM [18]: 41.4% | inhibition at 1 µM [19]: 6.1% | inhibition at 1 µM [20]: 46% | inhibition at 1 µM [21]: 0.8% | inhibition at 1 µM [22]: 76.1% | inhibition at 1 µM [23]: 4.4% | inhibition at 1 µM [24]: 3% | inhibition at 1 µM [25]: 0.8% | inhibition at 1 µM [26]: -2.3% | inhibition at 1 µM [27]: -4.1% | inhibition at 1 µM [28]: 0.3% | inhibition at 1 µM [29]: -5.9% | inhibition at 1 µM [30]: -6.8% | inhibition at 1 µM [31]: -3.2%
